Measurements from patent US20250049930A1, “PROTAC MOLECULES TARGETING FOXP3 AND USES THEREOF” (CEDARS-SINAI MEDICAL CENTER, priority 2022, published 2025).
Residues, ends and D or L forms follow the SMILES beside them. *: point of attachment. X1 = O=C1CCC(N2C(=O)c3cccc(*)c3C2=O)C(=O)N1; PEG4 = NCCOCCOCCOCCOCCC(=O)O

Key:
Tregs = experiment: Treg immunosuppression co-culture assay with human PBMC (CFSE dilution, IFNγ, TNFα); assay type: cell-based; details: human CD4+ PBMC treated 72 hours (10 μM), co-cultured with CD4− PBMC stimulated with αCD3 and αCD28; difference to P60 significant
Description: (§1) FIGS. 7A-7C depict that PF decreases FoxP3 and the immunosuppressive function of human CD4+ cells. Human peripheral blood mononuclear cells (PBMC) were treated in vitro with PF (10 μM) or various control drugs (10 μM) for 3 days (FIG. 7A). PMA 10 ng/ml and Ionomycin 2 μg/ml were added during PF treatment to induce FoxP3 (FIG. 7A). Resulting cells were gated on CD4 and assessed for FoxP3 expression by flow cytometry. To treat Tregs, CD4+ PBMC were isolated and treated with PF or various controls for 72 hours. […] CD8 proliferation was measured using a CFSE dilution assay. To assess CD8+ effector cells, CD4 negative splenocytes were CFSE labeled and CFSE dilution was measured in CD8+ cells by flow cytometry (FIG. 7B). In the same experiment, CD8+ cells were assessed for activation by gating on CD8 and assessing IFNγ or TNFα by flow cytometry (FIG. 7C). […]
(§2) Human peripheral blood mononuclear cells (PBMC) were treated with phorbol 12-myristate 13-acetate (PMA) (10 ng/ml) and Ionomycin (2 μg/ml) to increase FoxP3 expression. […] CD8 proliferation was measured using a CFSE dilution assay. Immune activation was assessed by measuring TNFα or IFNγ in CD8+ or CD4+ T cells using flow cytometry.
(§3) P60 was designed to bind both mouse and human FoxP3. Therefore, we evaluated PF using human peripheral blood mononuclear cells (PBMC). […] Resulting cells were gated on CD4 and assessed for FoxP3 expression by flow cytometry. […]

FoxP3 = target: T1, FoxP3 (Homo sapiens, UniProt Q9BZS1); experiment: FoxP3 expression in CD4+ human PBMC, flow cytometry; assay type: cell-based; details: 10 μM, 3 days, PMA 10 ng/ml and Ionomycin 2 μg/ml, difference to P60 not significant
T1 construct: endogenous in cells; host or cells: human PBMC (CD4+ gated)
T1 sequence (Q9BZS1 1-431): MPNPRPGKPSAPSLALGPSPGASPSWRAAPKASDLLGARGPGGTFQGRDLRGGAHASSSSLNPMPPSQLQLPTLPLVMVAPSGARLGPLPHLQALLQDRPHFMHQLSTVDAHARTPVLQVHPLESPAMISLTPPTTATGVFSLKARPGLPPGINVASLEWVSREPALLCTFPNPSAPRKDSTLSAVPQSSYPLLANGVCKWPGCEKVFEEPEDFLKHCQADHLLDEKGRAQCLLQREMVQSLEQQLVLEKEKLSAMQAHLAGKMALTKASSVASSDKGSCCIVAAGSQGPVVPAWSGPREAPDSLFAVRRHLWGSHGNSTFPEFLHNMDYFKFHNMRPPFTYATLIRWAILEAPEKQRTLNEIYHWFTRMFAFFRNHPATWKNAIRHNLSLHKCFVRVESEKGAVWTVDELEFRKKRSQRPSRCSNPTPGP
Description: as §1, §2, §3

RENCA cells = experiment: RENCA cell growth in vitro; assay type: cell-based, mouse; details: 0.002, 0.02, 0.2, or 2 μM, 48 hours
Description: That is, the tumor in the P60 treated tumor grew at the same rate as the saline treated mice. Further, RENCA cells (20×10^4/well) were seeded in 12 well plates and treated with PF or PC at 0.002, 0.02, 0.2, or 2 μM. […] The first approach involved depleting CD8+ lymphocytes, which are known to mediate antitumor immunity.

## CSCC[C@H](NC(=O)[C@H](C)NC(=O)[C@H](Cc1ccccc1)NC(=O)[C@H](Cc1ccccc1)NC(=O)[C@@H]1CCCN1C(=O)[C@H](Cc1c[nH]c2ccccc12)NC(=O)[C@H](CCSC)NC(=O)[C@H](CCCCN)NC(=O)[C@H](CCCNC(=N)N)NC(=O)[C@H](Cc1ccccc1)NC(=O)[C@H](CO)NC(=O)[C@H](CCC(N)=O)NC(=O)[C@H](Cc1ccccc1)NC(=O)[C@H](CC(=O)O)NC(=O)[C@H](CCCNC(=N)N)NC(=O)CCOCCOCCOCCOCCNc1cccc2c1C(=O)N(C1CCC(=O)NC1=O)C2=O)C(=O)O (stereo partly shown) [PF, Pomalidomide-PEG4-RDFQSFRKMWPFFAM] ({X1-PEG4}-RDFQSFRKMWPFFAM-OH)
Tregs
  CD8+ lymphocyte activation as measured by IFNγ or TNFα: greatest enhancement of CD8+ lymphocyte activation
  CD8+ lymphocyte proliferation (CFSE dilution): highest CD8+ lymphocyte proliferation
FoxP3
  percent of CD4+ cells expressing FoxP3: decreased the percent of CD4+ cells expressing FoxP3 when compared to control
RENCA cells
  RENCA growth in vitro (cell count): did not alter RENCA growth in vitro
